The target of one assay is T1, kynurenine 3-hydroxylase (Rattus norvegicus, UniProt O88867).
T1 construct: incubating 10 μL of the homogenate with NADPH (2 mM), kynurenine (100 μM); from tissue; host or cells: rat liver (pellet of the homogenate, resuspended)
Briefly: Inhibitory activity on kynurenine 3-hydroxylase in rat liver homogenate. The assay is classed as biochemical. The settings on record: test concentration not given. How it is done: Study of the Inhibitory Activity on Kynurenine 3-hydroxylase in Rat Liver
Rat livers are homogenised (1:8 weight/volume) in a buffer solution comprising: • 0.25 M sucrose • 50 mM pH 7.4 Tris; • 1 mM EDTA; and • 1 mM DTT.
The homogenates are centrifuged for 10 minutes at 12 000 rpm. The pellets are resuspended in the buffer solution described above (1:2 weight/volume).
The kynurenine 3-hydroxylase inhibition is determined by incubating 10 μL of the homogenate with NADPH (2 mM), kynurenine (100 μM) and various concentrations of the test compounds in a final volume of 100 μL at 37° C. for 5 minutes.
The compounds are tested at concentrations of between 1 μM and 300 μM. 3,4-Dimethoxy-N-[4-(3-nitrophenyl)thiazol-2-yl]benzenesulfonamide is a compound from the company Hoffmann-LaRoche (Basle, see J. Med. Chem., 40 (1997), 4738). 30H-Kynurenine was tested according to the protocol described by Carpendo et al. (Neuroscience, 61 (1994), 237-244).
Each of the experiments is repeated once and the IC50 values (in μmol/L) are calculated and given in the form of a mean of these two experiments.
Results concerning representative examples of family Ih are given in Table II below, in which is indicated the measurement of the percentage of remaining kynurenine 3-hydroxylase activity relative to the control (100%).

A further assay deals with primary hepatocytes. Briefly: Hepatic glucose production, basal lactate/pyruvate 2 hours, in primary hepatocytes. The assay is classed as cell-based, Wistar rats. Further details: Hepatic glucose production: unit not given here. The settings on record: for hepatic glucose production in vitro (result in words): primary rat hepatocytes, summary of Tables III and IV. How it is done: Study of the Effect on Glucose Production by the Liver Materials and Method:
After washing in pH 7.4 PBS buffer, the cells are incubated for two hours at 37° C. in a Krebs buffer free of glucose and of insulin, containing lactate/pyruvate (10/1 mM) in the presence or absence of the test compounds. 10 μM MICA (5-methoxyindole-2-carboxylic acid) is used as reference substance. Two identical experiments are performed (Table III-2).
The protein assay is performed on the rest of the incubation medium via the Lowry method (BIO-RAD Dc protein assay, BIO-RAD 5000116).
The results are expressed as nmoles of glucose produced per […] of proteins. The statistical test used is the t test.

Assay [1] deals with perfused isolated pancreases from N0 STZ diabetic rats. Briefly: Secretion of insulin and glucagon in perfused isolated pancreases from N0 STZ diabetic rats. The assay is classed as cell-based. The settings on record: absence of glucose, then 16.5 mM glucose; diabetic rat pancreas. An excerpt:
Study of the Effect on the Secretion of the Pancreatic Hormones Insulin and Glucagon, in N0STZ Diabetic Rats
The results are expressed as the mean±SEM (standard error of mean) of several experiments. The statistical test used is the Scheffé test.

The results in this text go back to patent US7727977B2, “Kynurenine 3-hydroxylase inhibitors for the treatment of diabetes” (Merck Patent Gesellschaft mit beschrankter Haftung, priority 2003, dated 2010).

Marks after values point to notes of the source that are not given here.

T1 sequence (O88867 whole entry): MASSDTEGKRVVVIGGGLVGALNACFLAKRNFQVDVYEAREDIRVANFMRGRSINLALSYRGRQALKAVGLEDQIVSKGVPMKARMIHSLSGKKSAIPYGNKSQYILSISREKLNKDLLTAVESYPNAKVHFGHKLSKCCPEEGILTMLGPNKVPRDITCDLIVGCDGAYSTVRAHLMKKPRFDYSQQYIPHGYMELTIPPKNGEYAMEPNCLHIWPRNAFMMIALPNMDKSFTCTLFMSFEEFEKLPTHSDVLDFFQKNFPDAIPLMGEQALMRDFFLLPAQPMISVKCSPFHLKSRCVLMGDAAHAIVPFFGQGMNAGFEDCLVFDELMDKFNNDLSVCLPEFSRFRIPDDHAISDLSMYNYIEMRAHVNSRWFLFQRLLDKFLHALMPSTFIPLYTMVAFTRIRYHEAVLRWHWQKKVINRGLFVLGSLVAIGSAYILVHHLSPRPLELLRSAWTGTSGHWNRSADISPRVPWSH

Turning to “2-(2′-naphthylthio)-4-(4′-chlorophenyl)-4-oxobutanoic acid [Ih-30]”, at kynurenine 3-hydroxylase, the “Remaining kynurenine 3-hydroxylase activity (% of control)” value was 24.3%.
Take `O=C(C[C@@H](Cc1ccccc1)C(=O)O)c1ccc(Cl)c(Cl)c1` (racemic) [Compound j, (R,S)-2-benzyl-4-(3′,4′-dichlorophenyl)-4-oxobutanoic acid]: the “Inhibition of hepatic glucose production” value is 30** % in the assay on primary hepatocytes (1 μM), 51** % in the assay with primary hepatocytes (10 μM) and 65** % with primary hepatocytes (100 μM). The “hepatic glucose production in vitro (result in words)” value (“hepatic glucose production in vitro” for short) in the assay on primary hepatocytes is reported as “powerful inhibitors of hepatic glucose production in vitro”.
Regarding `O=C(C[C@@H](Cc1ccccc1)C(=O)O)c1ccc(F)cc1` [Compound i, (R)-2-benzyl-4-(4-fluorophenyl)-4-oxobutanoic acid], the Hepatic glucose production in the assay on primary hepatocytes (1 μM) came out at 88 ± 7; with primary hepatocytes (10 μM) it was 73 ± 4; with primary hepatocytes (100 μM) it was 39 ± 3. Moreover, the “hepatic glucose production in vitro” value in the assay on primary hepatocytes is given as “powerful inhibitors of hepatic glucose production in vitro”. Besides, the “glucagon secretion (result in words)” value in assay [1] was “stimulation”. For the same compound, the “insulin secretion (result in words)” value in assay [1] is listed as “stimulation”.
`COc1ccc(S(=O)(=O)Nc2nc(-c3cccc([N+](=O)[O-])c3)cs2)cc1OC` [Compound k, 3,4-dimethoxy-N-[4-(3-nitrophenyl)thiazol-2-yl]benzenesulfonamide, reference compound]: in assay [1], the “glucagon secretion (result in words)” value was “stimulation” and the “insulin secretion (result in words)” value is on record as “stimulation”.
As for `O=C(CC(Sc1ccccc1)C(=O)O)c1ccccc1` (stereo not shown) [Ih-2, 2-phenylthio-4-phenyl-4-oxobutanoic acid], the “Remaining kynurenine 3-hydroxylase activity (% of control)” value at kynurenine 3-hydroxylase is recorded as 70.4%.
On the same count and under the same terms, with `O=C(CC(Sc1ccc(F)cc1)C(=O)O)c1ccccc1` (stereo not shown) [Ih-3, 2-(4′-fluorophenylthio)-4-phenyl-4-oxobutanoic acid] the figure was 50.4%.
Regarding `O=C(CC(Sc1ccc(Cl)cc1)C(=O)O)c1ccccc1` (stereo not shown) [Ih-4, 2-(4′-chlorophenylthio)-4-phenyl-4-oxobutanoic acid], the “Remaining kynurenine 3-hydroxylase activity (% of control)” value at kynurenine 3-hydroxylase was 34.8%.
Turning to `Cc1ccc(SC(CC(=O)c2ccccc2)C(=O)O)cc1` (stereo not shown) [Ih-5, 2-(4′-methylphenylthio)-4-phenyl-4-oxobutanoic acid], the “Remaining kynurenine 3-hydroxylase activity (% of control)” value at kynurenine 3-hydroxylase worked out at 45.4%.
Consider `O=C(CC(SC1CCCCC1)C(=O)O)c1ccccc1` (stereo not shown) [Ih-7, 2-cyclohexylthio-4-phenyl-4-oxobutanoic acid], for which the “Remaining kynurenine 3-hydroxylase activity (% of control)” value on kynurenine 3-hydroxylase was determined as 81.3%.
Regarding `O=C(CC(SCc1ccccc1)C(=O)O)c1ccccc1` (stereo not shown) [Ih-8, 2-benzylthio-4-phenyl-4-oxobutanoic acid], the “Remaining kynurenine 3-hydroxylase activity (% of control)” value on kynurenine 3-hydroxylase is 68.6%.
In the case of `CCOC(=O)C(CC(=O)c1ccccc1)Sc1ccccc1` (stereo not shown) [Ih-9, ethyl 2-phenylthio-4-phenyl-4-oxobutanoate], the “Remaining kynurenine 3-hydroxylase activity (% of control)” value on kynurenine 3-hydroxylase is on record as 80.8%.
Same read-out and setting: with `CCOC(=O)C(CC(=O)c1ccccc1)Sc1ccc(F)cc1` (stereo not shown) [Ih-10, ethyl 2-(4′-fluorophenylthio)-4-phenyl-4-oxobutanoate] the figure was 66.7%; with `CCOC(=O)C(CC(=O)c1ccccc1)Sc1ccc(Cl)cc1` (stereo not shown) [Ih-11, ethyl 2-(4′-chlorophenylthio)-4-phenyl-4-oxobutanoate], 44.6%; with `CCOC(=O)C(CC(=O)c1ccccc1)Sc1ccc(C)cc1` (stereo not shown) [Ih-12, ethyl 2-(4′-methylphenylthio)-4-phenyl-4-oxobutanoate], 63.3%.
For `CCOC(=O)C(CC(=O)c1ccccc1)Sc1ccc(OC)cc1` (stereo not shown) [Ih-13, ethyl 2-(4′-methoxyphenylthio)-4-phenyl-4-oxobutanoate], the “Remaining kynurenine 3-hydroxylase activity (% of control)” value at kynurenine 3-hydroxylase is listed as 55.2%.
Take `CCOC(=O)C(CC(=O)c1ccccc1)SC1CCCCC1` (stereo not shown) [Ih-15, ethyl 2-cyclohexylthio-4-phenyl-4-oxobutanoate]: the “Remaining kynurenine 3-hydroxylase activity (% of control)” value at kynurenine 3-hydroxylase is given as 95.0%.
The same measure, in the same setting: with `CCOC(=O)C(CC(=O)c1ccccc1)SCc1ccccc1` (stereo not shown) [Ih-16, ethyl 2-benzylthio-4-phenyl-4-oxobutanoate] the figure was 84.4%.
Same read-out and setting: with `COc1ccc(C(=O)CC(Sc2ccccc2)C(=O)O)cc1` (stereo not shown) [Ih-17, 2-phenylthio-4-(4′-methoxyphenyl)-4-oxobutanoic acid] the figure was 16.0%.
Turning to `COc1ccc(C(=O)CC(Sc2ccc(F)cc2)C(=O)O)cc1` (stereo not shown) [Ih-18, 2-(4′-fluorophenylthio)-4-(4′-methoxyphenyl)-4-oxobutanoic acid], at kynurenine 3-hydroxylase, the “Remaining kynurenine 3-hydroxylase activity (% of control)” value was found to be 6.6%.
The same measure, in the same setting: with `COc1ccc(C(=O)CC(Sc2ccc(Cl)cc2)C(=O)O)cc1` (stereo not shown) [Ih-19, 2-(4′-chlorophenylthio)-4-(4′-methoxyphenyl)-4-oxobutanoic acid] the figure was 4.1%; with `COc1ccc(C(=O)CC(Sc2ccc(C)cc2)C(=O)O)cc1` (stereo not shown) [Ih-20, 2-(4′-methylphenylthio)-4-(4′-methoxyphenyl)-4-oxobutanoic acid], 13.3%; with `COc1ccc(SC(CC(=O)c2ccc(OC)cc2)C(=O)O)cc1` (stereo not shown) [Ih-21, 2-(4′-methoxyphenylthio)-4-(4′-methoxyphenyl)-4-oxobutanoic acid], 17.4%.
On the same count and under the same terms, with `COc1ccc(C(=O)CC(SC2CCCCC2)C(=O)O)cc1` (stereo not shown) [Ih-23, 2-cyclohexylthio-4-(4′-methoxyphenyl)-4-oxobutanoic acid] the figure was 38.1%; with `COc1ccc(C(=O)CC(SCc2ccccc2)C(=O)O)cc1` (stereo not shown) [Ih-24, 2-benzylthio-4-(4′-methoxyphenyl)-4-oxobutanoic acid], 18.9%; with `O=C(CC(Sc1ccccc1)C(=O)O)c1ccc(Cl)cc1` (stereo not shown) [Ih-25, 2-phenylthio-4-(4′-chlorophenyl)-4-oxobutanoic acid], 67.6%.
Still for that read-out and setting: with `O=C(CC(Sc1ccc(F)cc1)C(=O)O)c1ccc(Cl)cc1` (stereo not shown) [Ih-26, 2-(4′-fluorophenylthio)-4-(4′-chlorophenyl)-4-oxobutanoic acid] the figure was 55.5%; with `O=C(CC(Sc1ccc(Cl)cc1)C(=O)O)c1ccc(Cl)cc1` (stereo not shown) [Ih-27, 2-(4′-chlorophenylthio)-4-(4′-chlorophenyl)-4-oxobutanoic acid], 34.9%; with `Cc1ccc(SC(CC(=O)c2ccc(Cl)cc2)C(=O)O)cc1` (stereo not shown) [Ih-28, 2-(4′-methylphenylthio)-4-(4′-chlorophenyl)-4-oxobutanoic acid], 50.5%.
Turning to `O=C(O)c1cc(=O)c2ccccc2[nH]1` [Kynurenic acid], in assay [1], the “glucagon secretion (result in words)” value is reported as “stimulates” and the “insulin secretion (result in words)” value is “stimulates the secretion of insulin”.
Consider `Nc1ccccc1C(=O)CC(N)C(=O)O` (stereo not shown) [Kynurenine], for which, in the assay on primary hepatocytes, the “hepatic glucose production in vitro” value is “powerful inhibitors of hepatic glucose production in vitro”. Besides, in assay [1], the “glucagon secretion (result in words)” value is “stimulated” and the “insulin secretion (result in words)” value is reported as “stimulated”.
“ethyl 2-(2′-naphthylthio)-4-phenyl-4-oxobutanoate [Ih-14]”: the “Remaining kynurenine 3-hydroxylase activity (% of control)” value at kynurenine 3-hydroxylase is recorded as 30.0%.
